Here are results for six compounds from patent US9592210B2, “1-phenylalkanecarboxylic acid derivatives for the treatment of cognitive impairment” (Chiesi Farmaceutici S.p.A., priority 2011, dated 2017).

By IC50 is commonly meant the concentration that inhibits the measured activity by half.

The subject of one series is AD patients. The note with it: cited from earlier work.
The subject of the next series is dendritic spine density. The note with it: mice; cited from earlier work.
For series [1], the system named is γ-secretase. The note with it: cited from earlier work.
In series [2] the test system is γ-secretase. The note with it: cited from earlier work. This is another data set of the same source.
Series [3] is described as follows: Object recognition test (preclinical). The series is classed as in vivo. The note with it: preclinical stage.
Series [4] is described as follows: Fear conditioning (preclinical). The series is classed as in vivo. The note with it: preclinical studies.
A short description of series [5]: Morris water maze (preclinical). The series is classed as in vivo. The note with it: preclinical study.
For series [6], the system named is human neuroglioma cells over-expressing the Swedish mutated APP (H4swe). The note with it: read-out: IC50 for lowering Aβ42 secretion; cited from earlier work.
Another series addresses COX-1 (Homo sapiens, UniProt P23219). The note with it: concentrations up to 100 μM; cited from earlier work.
For the next series, the target named is T1, COX-2 (Homo sapiens, UniProt P35354).
T1 sequence (P35354 18-604): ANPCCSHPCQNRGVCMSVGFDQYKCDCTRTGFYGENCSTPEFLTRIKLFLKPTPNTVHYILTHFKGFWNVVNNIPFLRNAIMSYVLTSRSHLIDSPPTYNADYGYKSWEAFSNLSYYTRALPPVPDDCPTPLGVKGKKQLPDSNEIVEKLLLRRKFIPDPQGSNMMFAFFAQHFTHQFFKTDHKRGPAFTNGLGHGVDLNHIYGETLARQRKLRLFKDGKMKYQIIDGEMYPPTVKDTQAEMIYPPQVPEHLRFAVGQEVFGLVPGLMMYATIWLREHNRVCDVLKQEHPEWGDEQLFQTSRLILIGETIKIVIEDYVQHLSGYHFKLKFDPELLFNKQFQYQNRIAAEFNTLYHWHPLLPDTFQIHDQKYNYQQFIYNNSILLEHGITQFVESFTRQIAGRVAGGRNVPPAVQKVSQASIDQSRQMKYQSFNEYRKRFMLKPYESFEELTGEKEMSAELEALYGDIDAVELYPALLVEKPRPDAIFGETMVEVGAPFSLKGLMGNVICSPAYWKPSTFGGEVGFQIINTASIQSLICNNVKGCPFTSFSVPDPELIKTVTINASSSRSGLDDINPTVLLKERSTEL
The note with it: concentrations up to 300 μM; cited from earlier work.

For series [7], the system named is Notch intracellular cleavage in human embryonic kidney 293 swe cells. The note with it: 5 μM; cited from earlier work.
Another series relates to NICD-responsive genes. The note with it: 100 μM; cited from earlier work.
The conditions of series [8]: mice, oral; cited from earlier work.
For series [9] the following is noted: rats, oral; cited from earlier work.
For series [10] the following is noted: species not given; follows mice and rats; cited from earlier work.
The conditions of series [11]: guinea-pigs, cited from earlier work.
The conditions of series [12]: dogs, cited from earlier work.
In series [13] the test system is transgenic mouse models of AD. The note with it: cited from earlier work.

SMILES strings stand for the structures. Where two headings read alike, the source gives them in different places.

Chain of COX-1 (P23219 24-599): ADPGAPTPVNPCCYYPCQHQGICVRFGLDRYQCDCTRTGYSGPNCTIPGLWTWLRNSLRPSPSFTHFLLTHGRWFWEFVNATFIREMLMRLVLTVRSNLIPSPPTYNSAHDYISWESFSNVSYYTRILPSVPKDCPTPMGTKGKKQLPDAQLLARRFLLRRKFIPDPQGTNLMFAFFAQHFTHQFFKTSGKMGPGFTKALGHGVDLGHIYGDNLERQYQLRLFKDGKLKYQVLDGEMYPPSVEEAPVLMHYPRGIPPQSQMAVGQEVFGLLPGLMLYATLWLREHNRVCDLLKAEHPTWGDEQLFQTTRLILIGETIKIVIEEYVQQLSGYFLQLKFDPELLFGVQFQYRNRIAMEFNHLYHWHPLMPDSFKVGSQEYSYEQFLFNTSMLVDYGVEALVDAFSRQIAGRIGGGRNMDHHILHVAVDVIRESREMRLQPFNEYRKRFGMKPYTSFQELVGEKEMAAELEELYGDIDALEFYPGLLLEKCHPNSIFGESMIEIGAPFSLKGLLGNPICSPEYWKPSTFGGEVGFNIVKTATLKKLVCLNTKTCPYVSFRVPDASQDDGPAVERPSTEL

On to `CC(C)[C@H](O)C(=O)N[C@@H](C)C(=O)N[C@@H]1C(=O)N(C)CCc2ccccc21` [semagacestat], for which the “cognition and ability to complete activities of daily living versus placebo” value in the series with AD patients (interim analysis of two Phase 3 trials) is “worsened over time to a statistically significantly higher rate”. Also, the “rate of skin cancer compared to placebo” value with AD patients (two 21-month Phase 3 trials, more than 2,600 AD patients) is listed as “increased rate of skin cancer”. In the series on dendritic spine density, the dendritic spine density entry is “decrease”. Further, the “brain and CSF levels of Aβ42 peptide” value with γ-secretase [1] (brain and CSF) is “increase”. The “brain level of C-terminal fragment of APP (CTFβ or C99)” value in the series on γ-secretase [1] (brain) is listed as “accumulation”.
With `COc1ccc2c(c1)c(CC(=O)O)c(C)n2C(=O)c1ccc(Cl)cc1` [indomethacin], in the series on γ-secretase [2], the “formation of Aβ38” value is “increase” and the “production of Aβ42” value is reported as “lower”.
`CSc1ccc(/C=C2/C(C)=C(CC(=O)O)c3cc(F)ccc32)cc1` [sulindac sulfide]: in the series with γ-secretase [2], the “formation of Aβ38” value is on record as “increase” and the “production of Aβ42” value is given as “lower”.
Regarding `CC(C(=O)O)c1ccc(-c2ccccc2)c(F)c1` (stereo not drawn) [flurbiprofen], in the series with γ-secretase [2], the “formation of Aβ38” value is reported as “increase” and the “production of Aβ42” value was “lower”.
Turning to `CC(C)Cc1ccc(C(C)C(=O)O)cc1` (stereo not drawn) [ibuprofen], in the series on γ-secretase [2], the “formation of Aβ38” value is reported as “increase” and the “production of Aβ42” value is on record as “lower”.
As for `O=C(O)C1(c2ccc(-c3ccc(Cl)c(Cl)c3)c(F)c2)CC1` [CHF 5074, 1-(3′,4′-dichloro-2-fluorobiphenyl-4-yl)cyclopropanecarboxylic acid], the “object recognition test performance” value in series [3] is “positive effects”. The fear conditioning performance entry in series [4] was “significantly improved”. For the same compound, in series [5], the “Morris water maze performance” value is reported as “marginal effects”. Besides, the IC50 in series [6] was 3.6 µM. For the same compound, the “inhibitory activity on COX-1” value at COX-1 is “does not display inhibitory activity”. The “inhibitory activity on COX-2” value on COX-2 is listed as “does not display inhibitory activity”. For the same compound, the “effects on Notch intracellular cleavage” value in series [7] is listed as “no effects were observed”. In the series on NICD-responsive genes, the “expression profile of several NICD-responsive genes” value is listed as “does not alter”. The absorbed orally was 74% in [8] and 50% in series [9]. Further, the “brain levels as % of corresponding plasma concentrations” value in [10] is on record as 3-14%. For the same compound, the “plasma elimination half-life t1/2” value in [11] (after oral administration) was “≈ 30 hours”. For the same compound, the brain penetration in series [11] is 3-9%. Moreover, in series [12] (oral), the “absorbed by oral route” value is recorded as 80-100%. Also, the “plasma elimination t1/2” value in series [12] is “≈ 24 hours”. In addition, the tolerability result in [13] (60 mg/kg/day, prolonged treatment for 4-9 months, mice) is recorded as “well tolerated”. Further, the “neuropathological and behavioral activity” value in [13] (oral doses of 60 mg/kg/day) was “active from neuropathological and behavioral points of view”.
